# Residues, ends and D or L forms follow the SMILES beside them.
# Key:
# [1] = system: pre- and postsynaptic protein markers; experiment: Pre- and postsynaptic protein markers in mouse brain, immunoblot; assay type: in vivo; conditions: 5 μg/g, i.p., alternating days for 45 days
# Protocol: Os-pep was dissolved in double-deionized distilled water and then prepared in normal saline to obtain the final administered concentration. The AβO, APP/PS1, Adipo^−/− and WT mice were injected i.p. with Os-pep at a dosage of 5 μg/g on alternating days for 45 days. WT, Veh-injected transgenic-APP/PS1 and Adipo^−/− mice were injected with the same volume of double-deionized water and normal saline. The WT control and sham mice as well as the Veh-injected AβO, APP/PS1, Adipo^−/− and HFD mice received the same volume of double-deionized distilled water or normal saline.
# (§1) The protein concentrations of the homogenates of mouse brain tissue and cell lysates in vitro were measured using a Bio-Rad protein assay kit (Bio-Rad Laboratories, Hercules, CA), and immunoblotting was performed as we previously described, using primary antibodies (detailed information described in the supplementary Table 1). Western blotting membranes have been cut prior to original western blot images and original western blot images are available at supplementary material.
# HT22 cells = experiment: ApoTox-Glo Triplex assay (viability, cytotoxicity, caspase 3/7), AβO-exposed cells; assay type: cell-based, mouse; conditions: 12 h
# Protocol: (§2) The ApoTox-Glo^TM Triplex assay (Promega, Madison, WI) was performed to assess the viability, cytotoxicity and caspase^3/7 activation in the human neuroblastoma SH-SY5Y and mouse hippocampal HT22 cells. SH-SY5Y and HT22 cells (2×10^4/ml) were cultured in 96-well plates (Thermo Fisher Scientific) containing DMEM supplemented with 10% FBS and 1% antibiotics and incubated at 37°C in a humidified incubator containing 5% CO2. After reaching 70% confluency, the cells were treated with AβO (1 µM) and different concentrations of Os-pep (0.5, 1, 5 and 10 µM) for 12 h. The control group (cells treated with 0.01% DMSO) was also analyzed. In addition, SH-SY5Y and HT22 cells were transfected with the AdipoR1 siRNA (h) (SC-60123) and AdipoR1 siRNA (m) (SC-60124), respectively, and treated with AβO (1 µM) and Os-pep (10 µM) for 12 h; the control group was transfected with the negative siRNA (Ambion, Thermo Fisher Scientific) and treated with 0.01% DMSO. The assay was performed according to our previously described protocols.
# [2] = system: learning and memory functions; experiment: Morris water maze (MWM) test; assay type: in vivo, mouse
# Protocol: (§3) To evaluate the learning and memory functions of the mice, we performed the Morris water maze (MWM) and Y-maze tests. After completion of the Os-pep dosage regimen, behavioral studies were performed on AβO-injected, AβO-injected and scramble and functional AdipoR1 shRNA-treated, APP/PS1 and Adipo^−/− mice (n = 13/group) using the MWM and Y-maze tests. […] The mice were randomly selected, and the operators were unaware of the genotype and treatment details for the behavioral study. The MWM and Y-maze tests were performed as previously described.
# SH-SY5Y cells = experiment: ApoTox-Glo Triplex assay (viability, cytotoxicity, caspase 3/7), AβO-exposed cells; assay type: cell-based, human; conditions: AβO 1 μM, 12 h
# Protocol: as §2
# WT C57BL/6 N mice = assay type: in vivo, mouse; conditions: i.p. bolus 10, 20, 30, 40 and 50 mg/kg, observed 1 week, n = 5/group, data not shown
# Protocol: To optimize and analyze the toxicity and effective dose of Os-pep, we performed a separate group of studies using wild-type (WT) male C57BL/6 N mice to examine the toxicity of Os-pep in vivo. The WT mice were rearranged into 5 groups (n = 5 mice/group). Os-pep was administered in bolus dosages of 10, 20, 30, 40 and 50 mg/kg in normal saline to the respective groups, and the Veh-injected mice received the same amount of normal saline as WT mice. We checked for signs of systemic toxicity, such as head tilt, tremor, abnormal physical activity and squinting, for 1 week in WT mice that had been treated with i.p. bolus doses of Os-pep (10, 20, 30, 40 and 50 mg/kg).
# To optimize and analyze the toxicity and effective dose of Os-pep, we performed a separate group of studies in order to assess signs of systemic toxicity, such as head tilt, tremor, changes in physical activity and squinting, for 1 week in normal WT mice injected i.p. with bolus doses of Os-pep (10, 20, 30, 40 and 50 mg/kg) to investigate the safety profile of bolus doses of Os-pep.
# [3] = system: activated caspase-3 and cleaved PARP-1; experiment: Apoptotic and neurodegenerative markers in APP/PS1 mouse brain, immunoblot; assay type: in vivo; conditions: APP/PS1 mice, 5 μg/g, i.p., alternating days for 45 days, n = 8/group
# Protocol: as §1
# spatial working memory = experiment: Y-maze test; assay type: in vivo, mouse; conditions: AβO-injected, APP/PS1 and Adipo−/− mice, n = 13/group
# Protocol: as §3
# [4] = Body weight measurements of the mice; assay type: in vivo, mouse; conditions: APP/PS1, HFD and Adipo−/− mice vs Veh-treated, 5 μg/g, i.p., alternating days for 45 days, n = 13/group
# Protocol: We monitored and weighed the mice three times per week to examine the effect of Os-pep dosage regimen (5 µg/g, i.p., on alternating days for 45 days) on the animals’ body weights. At the completion of the treatment, we calculated the average change in the body weight of the mice. At the completion of the treatments and behavioral experiments, blood samples were collected by cardiac puncture of the right atrium. The serum was collected from whole blood by centrifugation (3000 rpm for 10 min) at room temperature and was stored at -20 °C until it was processed for biochemical analyses by SCL Labs (Seoul Medical Science Institute) to evaluate various metabolic parameters, e.g., glucose (Glu), free fatty acids (FFA), total cholesterol (TC), triglycerides (TG), high density lipoprotein (HDL) and low density lipoprotein (LDL) levels.
# [5] = AβO-injected, APP/PS1 and Adipo−/− mice, n = 13/group
compound,measurement,setting,value
C[C@@H](O)[C@H](NC(=O)[C@@H]1CCCN1C(=O)CNC(=O)[C@H](CS)NC(=O)[C@@H]1CCCN1C(=O)CNC(=O)[C@H](CCC(N)=O)NC(=O)[C@@H](NC(=O)[C@@H](N)CS)[C@@H](C)O)C(=O)O [Os-pep] (H-CTQGPCGPT-OH; N-terminus and C-terminus assumed),pre- and postsynaptic protein levels,"[1]; AβO-treated, APP/PS1 and Adipo−/− mice",remarkably increased
same,"effects on pre- and postsynaptic markers, Os-pep alone",[1]; WT normal mice,did not have any detrimental effects
same,AβO-induced toxicity with AdipoR1 siRNA,"HT22 cells; AdipoR1 siRNA-transfected HT22, AβO 1 μM, Os-pep 10 μM",did not reduce the AβO-induced toxicity
same,"AβO neurotoxicity (viability, cytotoxicity, caspase 3/7)","HT22 cells; HT22, AβO 1 μM, Os-pep 10 μM",significantly reduced AβO (1 μM) neurotoxicity
same,neurotoxic effects of AβO,"HT22 cells; HT22, AβO 1 μM, cotreatment 0.5, 1, 5 and 10 μM",reduced the neurotoxic effects of AβO
same,spatial learning/memory functions with AdipoR1 silencing (MWM and Y-maze),"[2]; AβO-injected mice exposed to shRNA silencing of AdipoR1 gene, vs scramble shRNA",did not improve spatial learning/memory functions
same,"latency to reach the submerged platform, training session","[2]; AβO-injected, APP/PS1 and Adipo−/− mice, 5 μg/g, i.p., alternating days for 45 days, n = 13/group",decrease in the latency
same,"number of platform crossings, probe test",[2]; [5],significantly increased number of platform crossings
same,"time spent in the target quadrant, probe test",[2]; [5],more time was spent in the target quadrant
same,AβO-induced toxicity with AdipoR1 siRNA,"SH-SY5Y cells; AdipoR1 siRNA-transfected SH-SY5Y, Os-pep 10 μM",did not reduce the AβO-induced toxicity
same,"AβO neurotoxicity (viability, cytotoxicity, caspase 3/7)","SH-SY5Y cells; SH-SY5Y, Os-pep 10 μM",significantly reduced AβO (1 μM) neurotoxicity
same,neurotoxic effects of AβO,"SH-SY5Y cells; SH-SY5Y, cotreatment 0.5, 1, 5 and 10 μM",reduced the neurotoxic effects of AβO
same,"signs of systemic toxicity (head tilt, tremor, physical activity, squinting)",WT C57BL/6 N mice,no toxicity was observed
same,activated caspase-3 and cleaved PARP-1 levels,[3],significantly decreased
same,percentage of spontaneous alternation behaviors,spatial working memory,significantly increased
same,fold-increase in body weight,[4],smaller fold-increase in the body weight
